The test system of one experiment is rat livers. Put plainly: Initial partial freezing protocol of rat livers at −6° C., SNMP recovery. The following applies: glycerol 6% vol/vol with Snomax 1 g/L, 3-OMG 200 mM, PEG 5%.
Experiment [1] has as its system whole rat livers. The experiment can be described thus: Optimized partial freezing of whole rat livers: SNMP recovery after freezing. The following applies: −10° C., 1 day; at 3 h. The method, then: (§1) Within this standardized protocol, we first compared GLY, EG, and PG as main permeating CPA using a freezing temperature of −10° C. and storage duration of 1 day (FIG. 37). Using PG as the CPA, we subsequently tested the effect of freezing temperature (−10° C. vs −15° C.) and storage duration (1 day vs 5 days) on liver viability after partial freezing using the same protocol (FIG. 38).
Machine perfusion system: The perfusion system provides a continuous perfusion through the portal vein that is pressure, flow, and temperature controlled. The perfusates can be either recirculated or flushed with a single pass though the liver and perfusates can be changed without interrupting perfusion. The setup and operation of the perfusion system is described in detail elsewhere (see, e.g., ref. 15). There were two oxygenators used in this study, including the Radnoti (Cat #130144) and Affinity Pixie Oxygenator (Cat #BBP241). Due to the flexibility and low cost of the Radnoti oxygenator, it was first used for initial optimization and characterization studies, including determining the effect of permeating CPAs (GLY vs EG vs PG; FIG. 37), temperature (−10 vs −15° C., FIG. 38) storage duration (1 vs 5 days, FIG. 38), and warm ischemic injury. Once the major aspects of the protocol were optimized and characterized, we used the clinical grade Affinity Pixie Oxygenator. […]

In experiment [2] the test system is whole rat livers. The experiment can be described thus: Optimized partial freezing of whole rat livers: ex vivo simulated transplantation (normothermic reperfusion with whole blood). The following applies: −10° C., 1 day. The method, then: as §1
The Affinity Pixie Oxygenator is a clinical grade oxygenator that has graduated fiber bundle density technology and radial flow path that is designed to create a more uniform blood flow, enhance gas transfer, reduce pressure drops, and decrease prime volume. Moreover, it also contains a Balance® Biosurface that contains a hydrophilic polymer coating to reduce platelet adhesion and activation. This adaptation to the oxygenator is essential since recirculating whole blood during simulated transplantation may trigger coagulation and inflammatory events that are not representative of in vivo events and could skew observed outcomes.
Machine perfusion system: The perfusion system provides a continuous perfusion through the portal vein that is pressure, flow, and temperature controlled. The perfusates can be either recirculated or flushed with a single pass though the liver and perfusates can be changed without interrupting perfusion. The setup and operation of the perfusion system is described in detail elsewhere (see, e.g., ref. 15). There were two oxygenators used in this study, including the Radnoti (Cat #130144) and Affinity Pixie Oxygenator (Cat #BBP241). Due to the flexibility and low cost of the Radnoti oxygenator, it was first used for initial optimization and characterization studies, including determining the effect of permeating CPAs (GLY vs EG vs PG; FIG. 37), temperature (−10 vs −15° C., FIG. 38) storage duration (1 vs 5 days, FIG. 38), and warm ischemic injury.
Preconditioning during SNMP: Directly after procurement the livers were perfused with 250 ml of SNMP preloading solution (see Table 7 for composition of all solutions). The perfusion temperature was set at 21° C. and perfusion was initiated at 5 ml/min. […] Next, the livers were perfused for 30 additional minutes to allow for cellular uptake of 3-O-methyl-D-glucose (3-OMG).
Preloading of CPAs during HMP: The SNMP preloading solution was gradually switched to HMP preloading solution in […] increments, each with 10% decreasing and 10% increasing volumetric fractions of SNMP and HMP preloading solution, respectively. During this switch, the perfusion temperature was lowered to 4° C., and flows were adjusted to a maximum perfusion pressure of 3 mmHg. Dependent on the flowrate, the solution switch took 10-15 minutes. The HMP preloading was continued for 30 additional minutes to ensure complete equilibration of the solution throughout the peripheral liver tissue.
This was done in 10 fractions of 10 ml, each with 10% decreasing and 10% increasing volumetric fractions of HMP preloading solution and storage solution, respectively. During this switch, the perfusion temperature was maintained at 4° C., and the flowrates were lowered to ensure a maximum perfusion pressure of 3 mmHg. The final 15 ml fraction of 100% storage solution was loaded at a fixed flowrate of 0.5 ml/min.
Partial freezing: After loading of the storage solution, the liver was placed in a bag with 50 ml fresh storage solution and suspended in a pre-cooled chiller (Engel, Schwertberg, Austria). Depending on the experimental condition the chiller temperature was pre-cooled to −10° C. or −15° C. and the liver stored for […] 5 days.

With `OCC(O)CO` [GLY, glycerol], the “vascular resistance (mean±SD)” value with rat livers worked out at 0.11±0.05 mmHg*min/ml*g. Besides, the edema in the experiment with rat livers (one-step hand syringe loading) was above 60%. Besides, the “weight gain during SNMP recovery” value in the experiment on whole rat livers [1] is on record as 35.00±20.49%. In addition, in the experiment on whole rat livers [2], the “bile production during simulated transplantation” value was “did not produce bile”; the “lactate clearance after first hour of simulated transplantation” value is on record as “not observed”; the “microscopic tissue structure (H&E, blinded pathologist)” value was “most unfavorable results”. Besides, in the experiment with whole rat livers [2] (at 2 h), the oxygen uptake during simulated transplantation was 17.9 ± 5.86 µL O2/min/g, the “tissue adenylate energy charge” value is recorded as 0.064±0.039 and the “weight gain during simulated transplantation” value is listed as 19.00±16.63%. In the experiment on whole rat livers [2] (at 2 h of simulated transplantation), this compound returned an AST levels of 1528±388 U/L.

Source of the values: patent US20240268372A1, “Methods and Compositions for Extending Organ and Tissue Preservation” (The General Hospital Corporation, priority 2021, published 2024).
